Reference: paper PMC10256809, “Unlocking the potentials of cyanobacterial photosynthesis for directly converting carbon dioxide into glucose” (Nature Communications, 2023)

Key:
Glk2 = target: T1, Glk2 (Synechococcus elongatus, UniProt Q31LC8); assay: PK/LDH-coupled sugar phosphorylation assay, […] nm; assay type: biochemical; conditions: 10 mM sugar, 2.5 mM ATP, 4 mM MgCl2, 20 mM KCl, Tris-HCl pH 7.8
T1 construct: gene Synpcc7942_2111
T1 sequence (Q31LC8 1-302): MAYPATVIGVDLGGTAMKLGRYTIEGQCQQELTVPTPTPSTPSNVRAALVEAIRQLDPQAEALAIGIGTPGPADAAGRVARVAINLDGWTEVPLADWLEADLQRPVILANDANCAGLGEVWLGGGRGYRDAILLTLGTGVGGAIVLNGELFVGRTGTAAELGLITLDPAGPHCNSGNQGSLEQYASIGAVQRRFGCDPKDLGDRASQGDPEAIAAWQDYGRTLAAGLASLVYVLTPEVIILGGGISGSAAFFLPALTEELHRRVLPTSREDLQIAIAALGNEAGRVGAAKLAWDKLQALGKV

Glk1 = target: T2, Glk1 (Synechococcus elongatus, UniProt Q31RR6); assay: PK/LDH-coupled sugar phosphorylation assay, […] nm; assay type: biochemical; conditions: 10 mM sugar, 2.5 mM ATP, 4 mM MgCl2, 20 mM KCl, Tris-HCl pH 7.8
T2 construct: gene glk
T2 sequence (Q31RR6 1-345): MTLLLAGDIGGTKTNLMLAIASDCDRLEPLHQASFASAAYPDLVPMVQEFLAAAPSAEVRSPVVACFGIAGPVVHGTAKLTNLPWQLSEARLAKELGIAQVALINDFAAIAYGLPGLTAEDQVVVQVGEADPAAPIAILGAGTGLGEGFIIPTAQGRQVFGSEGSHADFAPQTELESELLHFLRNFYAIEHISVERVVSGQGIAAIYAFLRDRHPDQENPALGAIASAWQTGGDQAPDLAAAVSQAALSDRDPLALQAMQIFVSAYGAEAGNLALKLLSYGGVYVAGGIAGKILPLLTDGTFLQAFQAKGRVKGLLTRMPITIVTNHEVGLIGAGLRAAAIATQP

OC[C@H]1OC(O)[C@H](O)[C@@H](O)[C@@H]1O (some centres unmarked) [glucose]
PK/LDH-coupled sugar phosphorylation assay, 340 nm (Glk2): both the two glucokinases showed phosphorylation activities on some other sugars besides glucose | PK/LDH-coupled sugar phosphorylation assay, 340 nm (Glk1): both the two glucokinases showed phosphorylation activities on some other sugars besides glucose
